Settings: a range is the spread between reports

Compound	melting point
CCI	-111 to -108 °C
Nc1cc(Cl)ccc1Cl	48 to 50 °C
CCCCCCCCS	-49.2 to -49 °C
CCc1nc(N)nc(N)c1-c1ccc(Cl)cc1	233 to 234 °C
Cc1ccc(N)cc1F	31 to 33 °C
O=C1Cc2ccccc2N1	126 to 128 °C
Nc1ccccc1N	101 to 102 °C
c1ccc(-n2cccc2)cc1	59 to 62 °C
CCCCC=O	-92 to -91 °C
CC(C)(C(=O)O)c1ccccc1	79 to 81 °C
COC(=O)C(=O)OC	52 to 54.3 °C
CCCCC(O)CCC (stereo not given)	-41 to -40.7 °C
O=C(OC(=O)c1ccccc1)c1ccccc1	42 to 42.5 °C
CC(Oc1ccccc1Cl)C(=O)O (stereo not given)	113 to 114 °C
CCOC(=O)c1c[nH]nc1N	103 to 106 °C
O=C(O)CSc1ccccc1	64 to 65 °C
COc1cc(C=O)cc(OC)c1	46 to 47 °C
O=[N+]([O-])c1cc([N+](=O)[O-])c(F)cc1F	73 to 74 °C
CC(=O)C(C)C	-93.1 to -92 °C
O=C(O)CCC(=O)c1ccccc1	117 to 118 °C
CCC=O	-81 to -80 °C
Oc1cccc(O)c1	110 to 111 °C

Compound	melting point
Cc1ccc(O)c(C(=O)O)c1	151 to 153 °C
C#CCC(C)C	-105 °C
COc1ccccc1OC(=O)Oc1ccccc1OC	87 to 89 °C
CC1(C)CCCC1	-70 to -69.8 °C
CCCCOc1ccc(O)cc1	65 to 65.5 °C
SCCS	-41.2 to -41 °C
NC(=O)c1cc([N+](=O)[O-])cc([N+](=O)[O-])c1	182 to 184 °C
COc1ccc(C2CC(=O)c3c(O)cc(O)cc3O2)cc1O (stereo not given)	228 to 230 °C
CCOC(=O)c1ccc(O)cc1	116 to 117 °C
CN1CC=C(c2ccccc2)CC1	38.5 to 40 °C
C1CC[C@H]2CCCC[C@H]2C1	-43 to -42.9 °C
CC(=O)c1cccc(C#N)c1	98 to 99 °C
CC(=O)N[C@@H](CS)C(=O)O	110 °C
CCCCOC(=O)c1ccc(O)cc1	68.5 to 72 °C
c1ccc(-c2ccccc2)cc1	69 to 71 °C
Clc1ccc(Br)cc1	65 to 68 °C
CCOC(=O)C(NC(C)=O)C(=O)OCC	96.3 to 98 °C
CC(=O)Nc1cccc(C)c1	65 to 65.5 °C
COCOC	-105 °C
CCn1c2ccccc2c2ccccc21	68 to 69 °C
Cc1ccc(S)c(S)c1	29 to 31 °C
FC(F)(F)c1ccccc1	-29.1 to -27 °C

Compound	melting point
OCCCl	-67.5 to -63 °C
CCCC(N)=O	115 to 116 °C
Oc1ccc(Cc2ccccc2)cc1	83 to 84 °C
COc1ccc(OC)c(C=O)c1	49 to 52 °C
Cc1ccc(C)cc1	12 to 13.2 °C
C1=CC2C=CC1C2	-20 to -19.1 °C
O=C1c2c(O)cccc2Cc2cccc(O)c21	179 to 181 °C
Nc1cccnc1	61 to 64.5 °C
O=C(O)c1ccccc1C(=O)c1ccccc1	127 to 129 °C
CCC(=O)c1ccc(Br)cc1	46 to 48 °C
CCCCC(CC)COP(=O)(OCC(CC)CCCC)OCC(CC)CCCC (stereo not given)	-74 to -70 °C
CN(C)c1ccc(C(=O)c2ccc(N(C)C)cc2)cc1	175 to 179 °C
C/C=C\CCC	-141 °C
O=[N+]([O-])c1ccc(Nc2ccccc2)c([N+](=O)[O-])c1	159 to 160 °C
COP(N)(=O)SC (stereo not given)	45 to 46 °C
OC(CCN1CCCCC1)(c1ccccc1)C1CCCCC1 (stereo not given)	114 to 115 °C
CCOc1ccc(C=O)cc1OC	61 to 64.5 °C
O=C(O)c1ccc2c(c1)C(=O)OC2=O	162 to 167 °C
CC(=O)NC12CC3CC(CC(C3)C1)C2	148 °C
CCOC(=O)C(=O)OCC	-41 to -40 °C
Clc1sc(Cl)c(Cl)c1Cl	28 to 30.5 °C
CCOCCOCCO	-80 to -76 °C

Compound	melting point
Cc1cc([N+](=O)[O-])ccc1Cl	42.5 to 43 °C
COc1cc(OC)c(OC)cc1C=O	113 to 114 °C
O=C1C(Br)=CC(=NCl)C=C1Br	80 to 83 °C
COCCOc1c(OC)cc(Cc2cnc(N)nc2N)cc1OC	154 °C
CCC1(O)CC2CN(CCc3c([nH]c4ccccc34)C(C(=O)OC)(c3cc4c(cc3OC)N(C=O)C3C(O)(C(=O)OC)C(OC(C)=O)C5(CC)C=CCN6CCC43C65)C2)C1 (stereo not given)	219 °C
C=CC(C)(C)C	-115 °C
O=C(O)CC(S)C(=O)O (stereo not given)	149 to 152 °C
COc1cc(CCC(C)=O)ccc1O	40.5 to 41 °C
CCCCCCCCCC=O	-6 to -5 °C
Cc1cccc(O)c1O	65 to 68 °C
CCCCCCCCCCCCCCCCCCCCCCCCCCCCCCCCCCCCCCCC	81 to 82 °C
Nc1cccc2cnccc12	128 to 129 °C
NS(=O)(=O)c1ccc([N+](=O)[O-])cc1	179 to 180 °C
CS(=O)c1ccccc1 (stereo not given)	29 to 32 °C
S=C1NCCS1	105 to 106 °C
CC(C)CN	-87 to -85 °C
Cc1cccc(Cl)c1Cl	4 to 6 °C
CCOC(=O)C(=Cc1ccccc1)C(=O)OCC	30 to 32 °C
C=CC(=O)OC	-76.5 to -75 °C

Reference: a melting point compilation (Tetko et al.)
